Test results from paper PMC4405350, “From Broad-Spectrum Biocides to Quorum Sensing Disruptors and Mussel Repellents: Antifouling Profile of Alkyl Triphenylphosphonium Salts” (PLoS ONE, 2015).

What was measured:
Cylindrotheca sp. = test: Benthic diatom growth inhibition (chlorophyll-a); type: cell-based; settings: 120 h; growth, 5 days, chlorophyll-a; read-out: IC50 Cylindrotheca sp.
Method: (§1) All the biological assays were run by triplicate. […] For the active products, serial dilutions were performed to calculate the half-maximal inhibitory concentrations (IC50) or the minimal inhibitory concentrations (MIC). Unless otherwise stated, the test concentrations were 100, 50, 25, 10, 5, 2.5, 1, 0.5 and 0.1 μM. Dose-response curves were adjusted with GraphPad Prism 5 software using a four-parameter non-linear regression model.
(§2) Five strains of benthic diatoms, Nitszchia sp. […] The Nitzschia and Navicula strains were purchased from the Spanish Bank of Algae (Marine Biotechnology Center, University of Las Palmas de Gran Canaria). The other three strains were kindly provided by Dr. G. Courtois (University of Las Palmas de Gran Canaria). Diatoms were cultured at 19±1 °C in Erlenmeyer flaks (250 ml) containing 150 ml of Guillard’s F/2 medium, and subjected to a photoperiod of 18:6. Tests were run in 48-well plates. Inocula were prepared by adjusting diatom concentration to 2–4 × 10^6 cells ml^-1 using a Neubauer chamber. Test products were dissolved in F/2 medium (500 μl) to which diatom inocula (500 μl) were added. Thus, the final assay volume was 1 ml and the starting cell densities were ca. 1–2 x 10^6 diatoms ml^-1. Plates were incubated under the abovementioned conditions for 5 days and then chlorophyll-a (Chla) was quantified.
(§3) In order to extract Chla, the content of each well was transferred to a microcentrifuge tube and centrifuged at 10,000 rpm for 10 min. The supernatants were discarded and 200 μl of DMSO were added to the pellets. The tubes were incubated at 65 °C for 2 h in total darkness and vortexed every 30 min. Then, the content of each tube was transferred to a 96-well plate and the amount of Chla was determined spectrophotometrically. Path length correction factor for the DMSO extracts was determined.

[1] = tested on: Navicula cf. salinicola BEA 0055; test: Benthic diatom growth inhibition (chlorophyll-a); type: cell-based; settings: 120 h; growth, 5 days, chlorophyll-a; read-out: IC50 Navicula cf. salinicola
Method: as §1, §2, §3

[2] = tested on: Phaeodactylum tricornutum; test: Benthic diatom growth inhibition (chlorophyll-a); type: cell-based; settings: Phaeodactylum tricornutum, 120 h; growth, 5 days, chlorophyll-a; read-out: IC50 P. tricornutum
Method: as §1, §2, §3

Nitzschia sp. = test: Benthic diatom growth inhibition (chlorophyll-a); type: cell-based; settings: 120 h; growth, 5 days, chlorophyll-a; read-out: IC50 Nitzschia sp.
Method: as §1, §2, §3

Amphora sp. = test: Benthic diatom growth inhibition (chlorophyll-a); type: cell-based; settings: 120 h; growth, 5 days, chlorophyll-a; read-out: IC50 Amphora sp.
Method: as §1, §2, §3

[3] = tested on: V. harveyi WT and reporter strains; test: V. harveyi growth inhibition (OD600); type: cell-based; settings: Vibrio harveyi, 18 h, read-out: IC50 Growth
Method: (§4) V. harveyi BB120 (wild type strain), BB170 (luxN::Tn5kan), BB886 (luxPQ::Tn5kan) and BB721 (luxO::Tn5lacZ) were acquired from ATCC. To screen the ability of the compounds to interfere with QS, the test products were serially diluted in 100 μl of Autoinducer Bioassay (AB) medium using white, clear-bottom 96-well microtiter plates (Costar 3610) as assay platform. Aerobic bacterial cultures were incubated overnight (30 °C) and diluted 1:50. One-hundred μl of the diluted cultures were dispensed inside each well in the microtiter plate. That gave a starting cell density of 1–2 x 10^7 cfu ml^-1. The plates were covered with a sterile sealing film. Luminescence and OD600 were monitored every 15 min over 18 h with a multimode plate reader (Perkin-Elmer EnSpire) in order to correlate the effects of the products on both the growth and bioluminescence kinetics.
(§5) Compounds 3–5 and 7 were evaluated in V. harveyi WT and three mutant strains: BB886 (luxPQ::Tn5Kan), unable to detect AI-2; BB170 (luxN::Tn5Kan), unable to detect HAI-1; and BB721 (luxO::Tn5lacZ), a LuxO null mutant that produces maximal luminescence per cell constitutively. In order to take into account the cumulative effects of the compounds, bioluminescence and growth were measured simultaneously every 15 min over 18 h (Fig 7). Accordingly, IC50 values for bacterial luminescence and growth were obtained by integration of the areas under the curves for each tested dose (Table 3). For clarity of the graphs, error bars has been omitted in Fig 7 and only the mean curves are shown.

[4] = tested on: V. harveyi BB886 (luxPQ::Tn5kan); test: Quorum sensing bioassay: bioluminescence; type: cell-based; settings: Vibrio harveyi, 18 h, read-out: IC50 Luminescence BB886
Method: as §4, §5

[5] = tested on: V. harveyi BB721 (luxO::Tn5lacZ); test: Quorum sensing bioassay: bioluminescence; type: cell-based; settings: Vibrio harveyi, 18 h, read-out: IC50 Luminescence BB721
Method: as §4, §5

[6] = tested on: V. harveyi BB170 (luxN::Tn5kan); test: Quorum sensing bioassay: bioluminescence; type: cell-based; settings: Vibrio harveyi, 18 h, read-out: IC50 Luminescence BB170
Method: as §4, §5

[7] = tested on: V. harveyi BB120 (wild type strain); test: Quorum sensing bioassay: bioluminescence; type: cell-based; settings: Vibrio harveyi, 18 h, read-out: IC50 Luminescence WT
Method: as §4, §5

Cobetia marina CECT 4278 = test: Marine bacteria growth inhibition (broth microdilution, OD625); type: cell-based; settings: Cobetia marina, CECT4278; growth inhibition, 24 h, 30 °C, three replicates; read-out: IC50 C. marina
Method: as §1
(§6) Growth inhibition was assessed in Marine Broth (Conda) according to CLSI guidelines for broth microdilution susceptibility testing. The incubation time was 24 h and the incubation temperature was 30 °C.

[8] = tested on: Vibrio anguillarum CECT 4347; test: as above; type: cell-based; settings: Vibrio anguillarum, CECT4347; growth inhibition, 24 h, 30 °C, three replicates; read-out: IC50 V. anguillarum
Method: as §1, §6

[9] = tested on: Cellulophaga lytica CECT 5014; test: as above; type: cell-based; settings: Cellulophaga lytica, CECT5014; growth inhibition, 24 h, 30 °C, three replicates; read-out: IC50 C. lytica
Method: as §1, §6

[10] = tested on: Shewanella algae CECT 5021; test: as above; type: cell-based; settings: Shewanella algae, CECT5021; growth inhibition, 24 h, 30 °C, three replicates; read-out: IC50 S. algae
Method: as §1, §6

[11] = tested on: Pseudoalteromonas atlantica CECT 579; test: as above; type: cell-based; settings: Pseudoalteromonas atlantica, CECT579; growth inhibition, 24 h, 30 °C, three replicates; read-out: IC50 P. atlantica
Method: as §1, §6

[12] = tested on: Vibrio alginolyticus CECT 521; test: as above; type: cell-based; settings: Vibrio alginolyticus, CECT521; growth inhibition, 24 h, 30 °C, three replicates; read-out: IC50 V. alginolyticus
Method: as §1, §6

in vivo = settings: in vivo
Method: as §1
Artemia salina cysts (INVE Aquaculture, Ghent, Belgium) were hatched in brackish water (30 ‰ salinity) at 28 °C with aeration and under constant light. Newly hatched instar I nauplii were harvested for bioassays. Tests were conducted in 96-well plates (15±5 nauplii per well, test volume = 200 μl). The number of dead and alive individuals was recorded after 24 h of incubation at 28 °C and 24-hour photoperiod.

| SMILES | IC50 (Cylindrotheca sp.) [µM] | IC50 [1] [µM] | IC50 [2] [µM] | IC50 (Nitzschia sp.) [µM] | IC50 (Amphora sp.) [µM] | IC50 [3] [µM] | IC50 [4] [µM] | IC50 [5] [µM] | IC50 [6] [µM] | IC50 [7] [µM] | IC50 (Cobetia marina CECT 4278) [µM] | IC50 [8] [µM] | IC50 [9] [µM] | IC50 [10] [µM] | IC50 [11] [µM] | IC50 [12] [µM] | LC50 at 24 h (in vivo) [µM] |
| --- | --- | --- | --- | --- | --- | --- | --- | --- | --- | --- | --- | --- | --- | --- | --- | --- | --- |
| C/C=C/C[P+](c1ccccc1)(c1ccccc1)c1ccccc1 [Compound 3] | > 100 | 62.2 | > 100 | > 100 | > 100 | > 500 | 265 | 348 | 251 | 297 | > 100 | > 100 | 73.2 | > 100 | 9.5 | > 100 | – |
| BrCCCC[P+](c1ccccc1)(c1ccccc1)c1ccccc1 [Compound 4] | > 100 | > 100 | > 100 | > 100 | > 100 | > 500 | 307 | > 500 | 226 | > 500 | > 100 | > 100 | > 100 | > 100 | 26.4 | > 100 | – |
| CCCCN[P+](c1ccccc1)(c1ccccc1)c1ccccc1 [Compound 5] | 12.6 | 8.2 | 81.5 | 11.9 | 42.5 | > 500 | > 500 | > 500 | > 500 | > 500 | > 100 | > 100 | 41.8 | > 100 | > 100 | > 100 | – |
| CCCCC[P+](c1ccccc1)(c1ccccc1)c1ccccc1 [Compound 7] | > 100 | > 100 | > 100 | > 100 | > 100 | > 500 | 179 | 276 | 129 | 205 | > 100 | > 100 | > 100 | > 100 | > 100 | > 100 | – |
| CCCCCCCCCCCCCCCCCC[P+](c1ccccc1)(c1ccccc1)c1ccccc1 [Compound 17] | 8 | 1.2 | 7.4 | 7.6 | 4.2 | – | – | – | – | – | > 100 | 31.8 | 11.3 | 72.5 | 46.1 | > 100 | < 0.5 |
| CCCCCCCCCCCCCCCCCCC[P+](c1ccccc1)(c1ccccc1)c1ccccc1 [Compound 18] | 6.9 | 0.8 | 16.9 | 4.8 | 3.4 | – | – | – | – | – | > 100 | > 100 | 5.3 | > 100 | > 100 | > 100 | < 0.5 |
